The source of these data is ChEMBL document CHEMBL1201862, “PubChem BioAssay data set” (2004).

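In this assay, cells in 96-well plates receive the compound at five concentrations for 48 hours. Endpoints are linearly interpolated between the surrounding concentrations. GI50 = concentration required for 50% inhibition of growth.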 Active and inactive are the calls of the source. Rule as the data show it: active = GI50 up to about 1.1 µM and inactive = higher.

Test in all cases: inhibition of tumour cell growth, NCI panel, 48 h
Assay [1] concerns A549.
Assay [2] deals with ACHN.
Assay [3] has as its system CCRF-CEM.
The test system of assay [4] is EKVX.
The subject of assay [5] is HOP-62.
In assay [6] the test system is KM12.
Assay [7] deals with MOLT-4.
For assay [8], the system named is NCI-H226.
Assay [9] has as its system NCI-H23.
Assay [10] concerns NCI-H460.
Assay [11] deals with NCI-H522.
Assay [12] relates to OVCAR-5.
Assay [13] has as its system SF-295.
Assay [14] deals with SNB-19.
For assay [15], the system named is SW-620.
Assay [16] relates to UACC-62.
Assay [17] relates to HCC 2998.

Consider `CCCCCCCCCCCCC(=O)CCCCC(=O)O`, for which the GI50 was 18.3 µM (inactive) in [1]; 26.5 µM (inactive) in assay [2]; 33.7 µM (inactive) in assay [3]; 33.3 µM (inactive) in assay [4]; 18.3 µM (inactive) in assay [5]; 15.8 µM (inactive) in assay [6]. For the same molecule, the GI50 was 14.6 µM (inactive) in [7]; 22.9 µM (inactive) in [8]; 35.2 µM (inactive) in assay [9]; 19.4 µM (inactive) in [10]; 20.3 µM (inactive) in [11]; 18.2 µM (inactive) in assay [12]. In addition, the GI50 in [13] was 23.4 µM (inactive); in assay [14], 54.7 µM (inactive); in assay [15] it was 30.3 µM (inactive); in [16] it was 17.9 µM (inactive).
Turning to `O=C1CCC2(c3ccc(Cl)cc3)Nc3ccccc3N12` (stereo not drawn), the GI50 in [1] is 52.6 µM (inactive); in assay [2] it was 60.4 µM (inactive); in assay [4], > 100 µM (inactive); in assay [17] it was > 100 µM (inactive); in assay [5], > 100 µM (inactive); in assay [6], > 100 µM (inactive). Besides, the GI50 was 30.3 µM (inactive) in assay [7]; 67.9 µM (inactive) in [8]; 42.6 µM (inactive) in assay [9]; > 100 µM (inactive) in [10]; 55.5 µM (inactive) in assay [11]; > 100 µM (inactive) in assay [12]. Moreover, the GI50 in [13], in assay [14] and in assay [15] was > 100 µM (inactive) each time.
In the case of `CNS(=O)(=O)NN(C)S(=O)(=O)c1ccc(Cl)cc1`, the GI50 was > 100 µM (inactive) in [1]; > 100 µM (inactive) in [2]; > 100 µM (inactive) in [3]; 98.4 µM (inactive) in [4]; > 100 µM (inactive) in assay [17]; > 100 µM (inactive) in [5]. In addition, the GI50 in [6], in assay [7], in [8], in assay [9], in assay [11] and in assay [13] was > 100 µM (inactive) throughout. The GI50 in [14], in assay [15] and in [16] was > 100 µM (inactive) throughout.
Turning to `O=C(NC(Cc1ccccc1)C(=O)CCl)OCc1ccccc1` (stereo not drawn), the GI50 in assay [1] was 18.2 µM (inactive); in assay [2], 10.1 µM (inactive); in assay [3], 2.74 µM (inactive); in assay [17], 18.1 µM (inactive); in [5], 15.3 µM (inactive); in assay [6] it was 10 µM (inactive). Also, the GI50 was 9.2 µM (inactive) in assay [9]; 5.74 µM (inactive) in assay [10]; 1.67 µM (inactive) in assay [11]; 11.8 µM (inactive) in assay [12]; 14.1 µM (inactive) in [13]; 12.3 µM (inactive) in assay [14]. In addition, the GI50 in assay [15] is 4.26 µM (inactive); in assay [16], 9.2 µM (inactive).
In the case of `OC(Cn1cncn1)(Cn1cncn1)c1ccc(Cl)cc1Cl`, the GI50 in assay [1], in assay [2], in assay [3], in assay [5], in [6] and in assay [7] was > 100 µM (inactive) throughout. Besides, the GI50 in assay [8], in assay [9], in assay [10], in assay [11], in assay [12] and in [13] was > 100 µM (inactive) throughout. The GI50 in [15] and in assay [16] was > 100 µM (inactive) throughout.
For the molecule `CNS(=O)(=O)NN(C)S(=O)(=O)c1ccc(C)cc1`, the GI50 in [1], in assay [2], in assay [3], in [4], in assay [17] and in assay [5] was > 100 µM (inactive) throughout. The GI50 in assay [6], in assay [7], in assay [9], in assay [10], in assay [11] and in assay [12] was > 100 µM (inactive) each time. In addition, the GI50 in assay [13], in assay [14], in [15] and in [16] was > 100 µM (inactive) in each case.
As to `CC(=O)N(CCN)CCN`, the GI50 in [1] was > 10 µM (inactive); in assay [2] it was > 100 µM (inactive); in assay [3], > 10 µM (inactive); in assay [4], > 100 µM (inactive); in assay [17] it was > 10 µM (inactive); in assay [5] it was > 10 µM (inactive). In addition, the GI50 in [6], in [7], in [9], in assay [10], in assay [11] and in assay [13] was > 10 µM (inactive) throughout. In addition, the GI50 in assay [14] was > 10 µM (inactive); in [15], > 10 µM (inactive); in assay [16], > 100 µM (inactive).
Regarding `O=c1c2cccnc2ncn1CCCN1CCCCC1`, the GI50 in assay [1], in [2], in assay [3], in [4], in assay [5] and in assay [6] was > 100 µM (inactive) throughout. In addition, the GI50 in assay [7], in assay [8], in [9], in assay [10], in assay [11] and in assay [12] was > 100 µM (inactive) throughout. In addition, the GI50 in assay [13], in assay [14], in assay [15] and in [16] was > 100 µM (inactive) in each case.
With `CC1=C(Cl)C=CP(=O)(OC(C)C)C1` (stereo not drawn), the GI50 is > 100 µM (inactive) in assay [1]; > 100 µM (inactive) in assay [2]; 37.5 µM (inactive) in assay [3]; > 100 µM (inactive) in [4]; > 100 µM (inactive) in [17]; > 100 µM (inactive) in [5]. Further, the GI50 in assay [6] is > 100 µM (inactive); in [7] it was 40.7 µM (inactive); in assay [9] it was > 100 µM (inactive); in assay [10] it was > 100 µM (inactive); in assay [11], 27.8 µM (inactive); in [12], > 100 µM (inactive). For the same molecule, the GI50 in assay [13] is > 100 µM (inactive); in assay [15], 67.8 µM (inactive); in assay [16], > 100 µM (inactive).
On to `CCOc1cc(/C=C/C=C/c2ccc(N(C)C)cc2)[s+]c2ccccc12`, for which the GI50 is 11.4 µM (inactive) in assay [1]; 30.5 µM (inactive) in assay [2]; 3.38 µM (inactive) in [3]; 34.5 µM (inactive) in assay [4]; 59.6 µM (inactive) in [17]; 7.71 µM (inactive) in assay [5]. The GI50 is 17.1 µM (inactive) in assay [6]; 6.85 µM (inactive) in assay [7]; 34.6 µM (inactive) in assay [9]; 18.6 µM (inactive) in assay [10]; > 100 µM (inactive) in assay [12]; 33.8 µM (inactive) in assay [13]. Moreover, the GI50 is 31.3 µM (inactive) in [14], 30.7 µM (inactive) in assay [15] and 14.4 µM (inactive) in [16].
Turning to `COc1ccc(NN=C2C(=O)CCC2=O)cc1`, the GI50 is 18.3 µM (inactive) in [1]; 74.3 µM (inactive) in [2]; > 100 µM (inactive) in assay [3]; > 100 µM (inactive) in assay [4]; > 100 µM (inactive) in assay [17]; 50 µM (inactive) in assay [5]. The GI50 was > 100 µM (inactive) in assay [6]; > 100 µM (inactive) in assay [7]; > 100 µM (inactive) in [8]; 69 µM (inactive) in assay [9]; > 100 µM (inactive) in assay [10]; > 100 µM (inactive) in assay [12]. Moreover, the GI50 is 98.9 µM (inactive) in assay [13], > 100 µM (inactive) in assay [14], > 100 µM (inactive) in [15] and 5.69 µM (inactive) in assay [16].
As to `CC(C(=O)OCc1ccccc1)N(Cc1ccccc1)Cc1ccccc1` (stereo not drawn), the GI50 in assay [1] is > 100 µM (inactive); in assay [2], 87.3 µM (inactive); in assay [3], 53.5 µM (inactive); in assay [4], > 100 µM (inactive); in assay [17] it was > 100 µM (inactive); in assay [5] it was > 100 µM (inactive). In addition, the GI50 was 58.7 µM (inactive) in assay [6]; 33 µM (inactive) in assay [7]; 45.2 µM (inactive) in [9]; > 100 µM (inactive) in [10]; 29.2 µM (inactive) in [11]; > 100 µM (inactive) in [12]. Further, the GI50 in [13], in assay [14], in [15] and in assay [16] was > 100 µM (inactive) each time.
For `c1ccc(-c2ccnc3c2ccc2c(-c4ccccc4)ccnc23)cc1`, the GI50 was 0.875 µM (active) in assay [1]; 1.11 µM (active) in assay [2]; 0.465 µM (active) in [3]; 0.664 µM (active) in [4]; 1.89 µM (inactive) in [5]; 0.628 µM (active) in [6]. Besides, the GI50 was 0.514 µM (active) in [7]; 1.65 µM (inactive) in [8]; 1.85 µM (inactive) in [9]; 2.39 µM (inactive) in assay [10]; 1.46 µM (inactive) in assay [11]; 1.04 µM (active) in [12]. The results for the GI50 in assay [14], in [15] and in assay [16] were 1.19 µM (inactive), 3.72 µM (inactive) and 0.418 µM (active), respectively.
